# Active and inactive are the calls of the source. The rule behind the calls is not given here.
# Columns and labels:
# MIA PaCa-2 = experiment: Antiproliferative activity against human MIAPaCa2 cells after 72 hrs by MTT assay; type: functional, cell-based; conditions: MIA PaCa-2, 72 h
# A549 [1] = experiment: Antiproliferative activity against human A549 cells after 72 hrs by MTT assay; type: functional, cell-based; conditions: A549, 72 h
# BJ = experiment: Cytotoxicity against human BJ cells assessed as reduction in cell viability after 72 hrs by MTT assay; type: cell-based
# [2] = Selectivity index, ratio of IC50 for human BJ cells to IC50 for human A549 cells; type: toxicity; conditions: BJ cells versus A549 cells, read-out: Ratio IC50
# [3] = Selectivity index, ratio of IC50 for human BJ cells to IC50 for human MIAPaCa2 cells; type: toxicity; conditions: BJ cells versus MIAPaCa2 cells, read-out: Ratio IC50
# SK-BR-3 = experiment: Antiproliferative activity against human SKBR3 cells after 72 hrs by MTT assay; type: functional, cell-based; conditions: SK-BR-3, 72 h
# [4] = Selectivity index, ratio of IC50 for human BJ cells to IC50 for human SKOV3 cells; type: toxicity; conditions: BJ cells versus SKOV3 cells, read-out: Ratio IC50
# A549 [5] = experiment: Effect on wild-type p53 expression in human A549 cells at IC50 concentration after 72 hrs by Western blot analysis; type: ADME, cell-based; conditions: a549, 72 h
# SK-OV-3 [6] = experiment: Effect on total Akt levels in human SKOV3 cells at IC50 concentration after 72 hrs by Western blot analysis; type: ADME, cell-based; conditions: sk-ov-3, 72 h
# SK-OV-3 [7] = experiment: Induction of apoptosis in human SKOV3 cells at IC50 concentration by Annexin V-FITC/propidium iodide double staining based flow cytometry; type: functional, cell-based; conditions: TDE = time-dependent effect
# [8] = target: T1, Heat shock protein HSP90 (Homo sapiens) (UniProt P07900+P08238); experiment: Inhibition of HSP90 in human SKOV3 cells assessed as decrease in phosphorylated mTOR levels at IC50 concentration after 72 hrs by Western blot analysis; type: cell-based
# [9] = target: T1, Heat shock protein HSP90 (Homo sapiens); experiment: Inhibition of HSP90 protein levels in human SKOV3 cells at IC50 concentration after 72 hrs by Western blot analysis; type: cell-based
# SK-OV-3 [10] = experiment: Induction of apoptosis in human SKOV3 assessed as effect on caspase-9 levels at IC50 concentration after 72 hrs by Western blot analysis; type: functional, cell-based
# SK-OV-3 [11] = experiment: Potentiation of cisplatin-induced cytotoxicity in human SKOV3 cells assessed as combination index by measuring reduction in cell viability at 4.8 uM after 72 hrs by MTT assay; type: functional
# SK-OV-3 [12] = experiment: Effect on total mTOR levels in human SKOV3 cells at IC50 concentration after 72 hrs by Western blot analysis; type: ADME, cell-based; conditions: sk-ov-3, 72 h
# SK-OV-3 [13] = experiment: Cell cycle arrest in human SKOV3 cells assessed as accumulation at G2/M phase at IC50 concentration after 24 to 72 hrs by propidium iodide-based flow cytometry; type: functional
# SK-OV-3 [14] = experiment: Induction of apoptosis in human SKOV3 assessed as increase in cleaved PARP levels at IC50 concentration after 72 hrs by Western blot analysis; type: functional, cell-based
# SK-OV-3 [15] = experiment: Induction of apoptosis in human SKOV3 assessed as decrease in procaspase-3 levels at IC50 concentration after 72 hrs by Western blot analysis; type: functional, cell-based
# SK-OV-3 [16] = experiment: Induction of apoptosis in human SKOV3 cells assessed as reduction in cell density at IC50 concentration after 48 hrs by Hoechst 33342 staining-based fluorescence microscopy; type: functional
# SK-OV-3 [17] = experiment: Induction of apoptosis in human SKOV3 cells assessed as cell shrinkage at IC50 concentration after 48 hrs by Hoechst 33342 staining-based fluorescence microscopy; type: functional
# SK-OV-3 [18] = experiment: Induction of apoptosis in human SKOV3 cells assessed as early apoptotic cells at IC50 concentration after 48 hrs by Annexin V-FITC/propidium iodide double staining based flow cytometry (reference value: 4.5%); type: functional
# SK-OV-3 [19] = experiment: Induction of apoptosis in human SKOV3 assessed as effect on bcl2 levels at IC50 concentration after 72 hrs by Western blot analysis; type: functional, cell-based
# MDA-MB-231 = experiment: Antiproliferative activity against human MDA-MB-231 cells after 72 hrs by MTT assay; type: functional, cell-based; conditions: MDA-MB-231, 72 h
# SK-OV-3 [20] = experiment: Cell cycle arrest in human SKOV3 cells assessed as accumulation at G0/G1 phase at IC50 concentration after 24 to 72 hrs by propidium iodide-based flow cytometry; type: functional
# SK-OV-3 [21] = experiment: Induction of apoptosis in human SKOV3 assessed as decrease in procaspase-8 levels at IC50 concentration after 72 hrs by Western blot analysis; type: functional, cell-based
# SK-OV-3 [22] = experiment: Induction of apoptosis in human SKOV3 cells assessed as formation of apoptotic bodies at IC50 concentration after 48 hrs by Hoechst 33342 staining-based fluorescence microscopy; type: functional, cell-based
# SK-OV-3 [23] = experiment: Potentiation of cisplatin-induced cytotoxicity in human SKOV3 cells assessed as combination index by measuring reduction in cell viability at 0.15 uM after 72 hrs by MTT assay; type: functional
# [24] = target: T1, Heat shock protein HSP90 (Homo sapiens); experiment: Inhibition of HSP90 in human SKOV3 cells assessed as decrease in phosphorylated Akt levels at IC50 concentration after 72 hrs by Western blot analysis; type: cell-based
# SK-OV-3 [25] = experiment: Induction of apoptosis in human SKOV3 assessed as effect on t-bid levels at IC50 concentration after 72 hrs by Western blot analysis; type: functional, cell-based
# SK-OV-3 [26] = experiment: Induction of apoptosis in human SKOV3 assessed as increase in cleaved caspase-8 levels at IC50 concentration after 72 hrs by Western blot analysis; type: functional, cell-based
# SK-OV-3 [27] = experiment: Potentiation of cisplatin-induced cytotoxicity in human SKOV3 cells assessed as combination index by measuring reduction in cell viability at 2.4 uM after 72 hrs by MTT assay; type: functional
# SK-OV-3 [28] = experiment: Potentiation of cisplatin-induced cytotoxicity in human SKOV3 cells assessed as combination index by measuring reduction in cell viability at 1.2 uM after 72 hrs by MTT assay; type: functional
# SK-OV-3 [29] = experiment: Induction of apoptosis in human SKOV3 cells at IC50 concentration after 24 hrs by Annexin V-FITC/propidium iodide double staining based flow cytometry; type: functional, cell-based
# SK-OV-3 [30] = experiment: Potentiation of cisplatin-induced cytotoxicity in human SKOV3 cells assessed as combination index by measuring reduction in cell viability at 0.3 uM after 72 hrs by MTT assay; type: functional
# SK-OV-3 [31] = experiment: Cell cycle arrest in human SKOV3 cells assessed as accumulation at S phase at IC50 concentration after 24 to 72 hrs by propidium iodide-based flow cytometry; type: functional
# SK-OV-3 [32] = experiment: Induction of apoptosis in human SKOV3 assessed as effect on bax levels at IC50 concentration after 72 hrs by Western blot analysis; type: functional, cell-based
# SK-OV-3 [33] = experiment: Induction of apoptosis in human SKOV3 assessed as effect on bid levels at IC50 concentration after 72 hrs by Western blot analysis; type: functional, cell-based
# SK-OV-3 [34] = experiment: Induction of apoptosis in human SKOV3 cells assessed as reduction in mutant p53 levels at IC50 concentration after 72 hrs by Western blot analysis; type: functional, cell-based
# SK-OV-3 [35] = experiment: Induction of apoptosis in human SKOV3 cells assessed as chromatin condensation at IC50 concentration after 48 hrs by Hoechst 33342 staining-based fluorescence microscopy; type: functional, cell-based
# SK-OV-3 [36] = experiment: Potentiation of cisplatin-induced cytotoxicity in human SKOV3 cells assessed as combination index by measuring reduction in cell viability at 0.6 uM after 72 hrs by MTT assay; type: functional
# SK-OV-3 [37] = experiment: Antiproliferative activity against human SKOV3 cells after 72 hrs by MTT assay; type: functional, cell-based; conditions: SK-OV-3, 72 h
# SK-OV-3 [38] = experiment: Induction of apoptosis in human SKOV3 cells assessed as early apoptotic cells at IC50 concentration after 72 hrs by Annexin V-FITC/propidium iodide double staining based flow cytometry (reference value: 4.7%); type: functional
compound,measurement,setting,value
CNC(=O)N[C@]1(C)CC[C@]2(C)CC[C@]3(C)C4=CC=C5C(=CC(=O)C(O)=C5C)[C@]4(C)CC[C@@]3(C)[C@@H]2C1,IC50,MIA PaCa-2,410 nM
same,IC50,A549 [1],1450 nM
same,IC50,BJ,1960 nM
same,selectivity ratio,[2],1.36
same,selectivity ratio,[3],4.72
CC1=C(O)C(=O)C=C2C1=CC=C1[C@@]2(C)CC[C@@]2(C)[C@@H]3C[C@](C)(C(=O)O)CC[C@]3(C)CC[C@]12C [CELASTROL],IC50,SK-BR-3,720 nM
same,selectivity ratio,[4],2.34
same,selectivity ratio,[2],1.75
same,selectivity ratio,[3],5.97
CC1=C(O)C(=O)C=C2C1=CC=C1[C@@]2(C)CC[C@@]2(C)[C@@H]3C[C@](C)(NC(=O)NCCc4cccc(Cl)c4)CC[C@]3(C)CC[C@]12C,IC50,SK-BR-3,780 nM
same,Activity,A549 [5],Non-Toxic
same,Activity,SK-OV-3 [6],Non-Toxic
same,Activity,SK-OV-3 [7],Tde
same,inhibition,[8],Active
same,inhibition,[9],Active
same,Activity,SK-OV-3 [10],inactive
same,selectivity ratio,[4],5.81
same,CI,SK-OV-3 [11],0.7102
same,Activity,SK-OV-3 [12],Non-Toxic
same,Activity,SK-OV-3 [13],inactive
same,Activity,SK-OV-3 [14],Active
same,Activity,SK-OV-3 [15],Active
same,IC50,MIA PaCa-2,350 nM
same,Activity,SK-OV-3 [16],Active
same,Activity,SK-OV-3 [17],Active
same,IC50,A549 [1],1270 nM
same,Activity,SK-OV-3 [18],15%
same,Activity,SK-OV-3 [19],inactive
same,IC50,MDA-MB-231,1150 nM
same,Activity,SK-OV-3 [20],inactive
same,IC50,BJ,3290 nM
same,Activity,SK-OV-3 [21],Active
same,Activity,SK-OV-3 [22],Active
same,CI,SK-OV-3 [23],1.047
same,inhibition,[24],Active
same,Activity,SK-OV-3 [25],inactive
same,Activity,SK-OV-3 [26],Active
same,CI,SK-OV-3 [27],0.575
same,selectivity ratio,[2],2.59
same,CI,SK-OV-3 [28],0.6855
same,Activity,SK-OV-3 [29],inactive
same,CI,SK-OV-3 [30],1.374
same,Activity,SK-OV-3 [31],inactive
same,Activity,SK-OV-3 [32],inactive
same,Activity,SK-OV-3 [33],inactive
same,Activity,SK-OV-3 [34],Active
same,Activity,SK-OV-3 [35],Active
same,selectivity ratio,[3],9.31
same,CI,SK-OV-3 [36],1.44
same,IC50,SK-OV-3 [37],560 nM
same,Activity,SK-OV-3 [38],31.8%
CC(=O)Oc1cc2c(c(C)c1OC(C)=O)CC=C1[C@@]2(C)CC[C@@]2(C)[C@@H]3C[C@](C)(N=C=O)CC[C@]3(C)CC[C@]12C,IC50,MIA PaCa-2,1410 nM
same,IC50,A549 [1],2890 nM
Cc1c(O)c(O)cc2c1C(=O)C=C1[C@@]2(C)CC[C@@]2(C)[C@@H]3C[C@](C)(NC(N)=O)CC[C@]3(C)CC[C@]12C,IC50,MIA PaCa-2,> 5000 nM
same,IC50,A549 [1],> 15000 nM
CCCNC(=O)N[C@]1(C)CC[C@]2(C)CC[C@]3(C)C4=CC=C5C(=CC(=O)C(O)=C5C)[C@]4(C)CC[C@@]3(C)[C@@H]2C1,IC50,MIA PaCa-2,660 nM
same,IC50,A549 [1],1260 nM
CC1=C(O)C(=O)C=C2C1=CC=C1[C@@]2(C)CC[C@@]2(C)[C@@H]3C[C@](C)(NC(=O)Nc4ccccc4N)CC[C@]3(C)CC[C@]12C,IC50,MIA PaCa-2,560 nM
same,IC50,A549 [1],2990 nM
CNC(=O)N[C@]1(C)CC[C@]2(C)CC[C@]3(C)C4=CC(=O)c5c(cc(O)c(O)c5C)[C@]4(C)CC[C@@]3(C)[C@@H]2C1,IC50,MIA PaCa-2,> 5000 nM
same,IC50,A549 [1],> 15000 nM
CC1=C(O)C(=O)C=C2C1=CC=C1[C@@]2(C)CC[C@@]2(C)[C@@H]3C[C@](C)(NC(=O)Nc4ccccc4)CC[C@]3(C)CC[C@]12C,IC50,MIA PaCa-2,400 nM
same,IC50,A549 [1],2270 nM
CCCCNC(=O)N[C@]1(C)CC[C@]2(C)CC[C@]3(C)C4=CC=C5C(=CC(=O)C(O)=C5C)[C@]4(C)CC[C@@]3(C)[C@@H]2C1,IC50,MIA PaCa-2,310 nM
same,IC50,A549 [1],1440 nM
same,IC50,BJ,2120 nM
same,selectivity ratio,[2],1.48
same,selectivity ratio,[3],6.94

# Reference: ChEMBL document CHEMBL4190255, “Novel celastrol derivatives with improved selectivity and enhanced antitumour activity: Design, synthesis and biological evaluation” (Eur J Med Chem, 2017)
